Results on four compounds are retold here after PMC6940912, “Novel Drug-Like Somatostatin Receptor 4 Agonists are Potential Analgesics for Neuropathic Pain” (International Journal of Molecular Sciences, 2019).

Data set [1] relates to Male NMRI mice. Put plainly: RTX-induced acute neurogenic inflammatory thermal allodynia and mechanical hyperalgesia. Conditions: oral pretreatment 1 h before intraplantar RTX, printed dose 500 µg/kg. In kind it is in vivo, mouse. The method, then: The investigated compounds (500 µg/kg p.o.) or the vehicle were administered orally 1 h before the induction of the acute neurogenic inflammation by intraplantar RTX (Sigma, St. Louis, MO, USA) injection (20 µL, 0.1 µg/mL) into the right hindpaw. RTX evokes an acute neurogenic inflammatory reaction with the development of a rapid thermal allodynia, mainly due to peripheral sensitization mechanisms, and a later developing mechanical hyperalgesia due also to central sensitization. The nociceptive heat threshold was determined before (control) and 10, 20 and 30 min after RTX administration with an increasing-temperature hot plate (IITC Life Science, Woodland Hills, CA, USA). […] The mechanonociceptive threshold was measured with an electronic von Frey device (dynamic plantar aesthesiometer (DPA), Ugo Basile, Comerio, Italy) prior to RTX injection and 30, 60 and 90 min afterwards. The measurement at 30 min was performed immediately after the last heat threshold measurement. The experiment consisted of two separate series on consecutive days and the number of animals in the control group was six per day. Therefore, the control group contained 12 mice, and six and five mice were used in the C1- and C2-treated groups, respectively.
(§1) In the sst4 receptor activation assay, all the compounds were dissolved in dimethyl sulfoxide (DMSO) (Szkarabeusz Ltd., Pécs, Hungary). The concentration of the stock solutions was 10 mM and was diluted with distilled water to reach the final concentrations. For the in vivo experiments, 1 mg of the compounds was rubbed dry in a braying mortar, suspended thoroughly in 1 mL 1.25% methylcellulose (MC) (Pharmacy of University of Pécs, Pécs, Hungary) solution and then dissolved in sterile bidistilled water to get a 1000 µg/mL stock solution freshly every experimental day. Most microsuspensions looked opalescent; they were shaken properly, sonicated, and further diluted with 1.25% MC to obtain the 25 µg/mL solution for oral administrations (0.2 mL/10 g body weight for the 500 µg/kg dose). The solutions were shaken and sonicated again directly before use. The vehicle was always 1.25% MC dissolved in sterile bidistilled water.
Male NMRI mice (8–12 weeks old) bred in the Laboratory Animal House of the Department of Pharmacology and Pharmacotherapy of the University of Pecs were kept in standard plastic cages at 24–25 °C, under a 12–12 h light–dark cycle and provided with standard rodent chow and water ad libitum. […]

Data set [2] deals with Male NMRI mice. Put plainly: Partial sciatic nerve ligation-induced chronic traumatic neuropathic mechanical hyperalgesia. The data set is classed as in vivo, mouse. On the procedure: After conditioning and two control mechanonociceptive measurements on 2 consecutive days, mice were anaesthetized by the combination of ketamine (100 mg/kg, i.p.) and xylazine (10 mg/kg, i.p.). Traumatic mononeuropathy was achieved by one-third to one-half part ligation of the right sciatic nerve. Significant decrease in the mechanical threshold develops 7 days after operation. The mechanonociceptive threshold of the plantar surface of the hindpaws was measured by DPA on the 7th postoperative day. The paw withdrawal threshold was obtained in grams (the maximal value was 10 g; ramp time of 4 s). The compounds (500 µg/kg) or the vehicle were administered orally on day 7, one hour before the repeated measurement. The experiment consisted of separate series on 3 consecutive days, and there were 2–3 vehicle-treated control animals in every series. Therefore, each group contained 8 mice.
as §1
Male NMRI mice (8–12 weeks old) bred in the Laboratory Animal House of the Department of Pharmacology and Pharmacotherapy of the University of Pecs were kept in standard plastic cages at 24–25 °C, under a 12–12 h light–dark cycle and provided with standard rodent chow and water ad libitum. All experimental procedures complied with the recommendations of the 1998/XXVIII Act of the Hungarian Parliament on Animal Protection and Consideration Decree of Scientific Procedures of Animal Experiments (63/2010) and were approved by the Ethics Committee on Animal Research of Pecs University according to the Ethical Codex of Animal Experiments; license was given (license No. BA1/35/55-50/2017). We made all efforts to minimize the number and suffering of the animals used in this study.

Data set [3] concerns the target T1, sst4 receptor (Homo sapiens, UniProt P31391).
T1 construct: expressed in transfected cells; host or cells: CHO cells
The data set can be described thus: sst4 receptor-linked G-protein activation, [35S]GTPγS binding assay on membranes of sst4-expressing CHO cells. In kind it is biochemical. The following applies: for EC50: 1 nM to 10 µM, n = 3; for Emax: [35S]GTPγS binding, mean ± SEM, n = 3, read-out: Maximal activation over the basal activity of the receptor (efficacy). On the procedure: Membrane fractions were prepared from CHO cells, which express the sst4 receptor, in Tris–ethylene glycol-bis(2-aminoethyl)tetraacetic acid (Tris–EGTA) buffer (50 mM Tris–HCl (Sigma, St. Louis, MO, USA), 1 mM EGTA (Sigma, St. Louis, MO, USA), 3 mM MgCl2 (Sigma, St. Louis, MO, USA), 100 mM NaCl (Sigma, St. Louis, MO, USA), pH 7.4, 10 μg of protein/sample). The fractions were incubated in the buffer containing 0.05 nM guanosine triphosphate (GTP) (BioChemica International Inc., Melbourne, Florida, USA), labeled on the gamma phosphate group with ^35S ([^35S]GTPγS) (Isotop Institute, Budapest, Hungary) and increasing concentrations (1 nM to 10 µM) of C1, C2, C3 and C4 compounds for 60 min at 30 °C, in the presence of 30 μM guanosine diphosphate (GDP) (Sigma, St. Louis, MO, USA). We determined the nonspecific binding in the presence of 10 μM unlabeled GTPγS and total binding in the absence of test compounds. Samples were filtrated through Whatman GF/B glass fiber filters using 48-well Slot Blot Manifold from Cleaver Scientific (Cleaver Scientific Ltd., Rugby, Warwickshire, United Kingdom). Filters were washed with ice-cold 50 mM Tris–HCl buffer (pH 7.4) and radioactivity was measured in a β-counter (PerkinElmer Inc., Waltham, MA, USA). The test-compound-induced G-protein activation was given as percentage over the specific [^35S]GTPγS binding detected in the absence of agonists.
as §1

Data set [4] relates to Male NMRI mice. Also on record: method as in PMID 16697366, PMID 12122501. The following applies: 10–100 µg/kg i.p. ref 15, 27; cited from earlier work.
Details of data set [5]: method as in PMID 30232095. The following applies: native peptide ref 9; cited from earlier work.
[6] abbreviates: day 7 after sciatic nerve ligation, 500 µg/kg oral, 1 h later, n = 8.
Where [7] appears, read: day 7 after sciatic nerve ligation, pretreatment self-control, n = 8.

T1 sequence (P31391 whole entry): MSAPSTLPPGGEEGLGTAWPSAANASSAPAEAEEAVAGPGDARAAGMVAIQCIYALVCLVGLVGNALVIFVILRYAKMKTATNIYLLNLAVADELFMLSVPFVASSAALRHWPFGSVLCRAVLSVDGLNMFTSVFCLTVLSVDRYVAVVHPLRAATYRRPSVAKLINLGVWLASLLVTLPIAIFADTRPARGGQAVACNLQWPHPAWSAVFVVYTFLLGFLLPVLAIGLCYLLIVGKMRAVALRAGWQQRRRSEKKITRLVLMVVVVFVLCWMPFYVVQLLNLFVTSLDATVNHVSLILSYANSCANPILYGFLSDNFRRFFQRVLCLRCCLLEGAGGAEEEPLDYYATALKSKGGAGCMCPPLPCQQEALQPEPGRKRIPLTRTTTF

In the case of `COc1ccc(CCNc2ncnc3c2c(C)c(C)n3Cc2ccccc2)cc1` [Compound 2, (7-Benzyl-5,6-dimethyl-7H-pyrrolo[2,3-d]pyrimidin-4-yl)-[2-(4-methoxy-phenyl)-ethyl]-amine], in data set [1] (at 10 and 30 min), the “Effect on acute neurogenic inflammatory heat hyperalgesia” value is recorded as “not”. Moreover, the “Effect on RTX-induced mechanical hyperalgesia” value in data set [1] (at 30 min) is “not”. Moreover, in data set [2] (setting [6]), the “Mechanonociceptive threshold of operated limb, 1 h after treatment” value came to 8.04 ± 0.31 g and the “Neuropathic mechanical hyperalgesia, 1 h after treatment” value is given as 15.70% ± 2.84. Moreover, in data set [2] (setting [7]), the “Mechanonociceptive threshold of operated limb, before treatment” value is reported as 6.53 ± 0.30 g and the “Neuropathic mechanical hyperalgesia, before treatment” value is on record as 31.39% ± 3.39. The “Anti-hyperalgesic effect on neuropathic mechanical hyperalgesia” value in data set [2] (traumatic nerve injury, single oral 500 µg/kg) came to 50%. For the same compound, in data set [3], the response was half-maximal at 66 nM (EC50) and the Emax was 203%.

Regarding `COc1ccc(CNc2ncnc3c2c(C)c(C)n3Cc2ccccc2)cc1` [Compound 4, 4-Methoxy-benzyl-[7-benzyl-5,6-dimethyl-7H-pyrrolo[2,3-d]pyrimidin-4-yl]-amine], in data set [3], a half-maximal effect (EC50) was put at 70 nM and the Emax amounted to 177%.

With `Cc1ccc(S(=O)(=O)N[C@@H](CCN)C(=O)N[C@@H](Cc2ccccc2)C(N)=O)c2ccccc12` [Compound J-2156], in data set [4], the “Analgesic effect in partial sciatic nerve ligation model” value was “potent and dose-dependent analgesic effects”.

For the compound “somatostatin: native peptide released from capsaicin-sensitive sensory nerve terminals”, the Elimination half-life in data set [5] was < 3 min.
